Molecules are shown by their SMILES.

The assay has as its system T-cells. Kind of assay: In vivo activity: CD25 expression on CD4+ or CD8+ T-cells of mice stimulated with anti-CD3 antibody. Particulars: 2 μg anti-CD3 antibody, 24 hours. A digest of the protocol: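 C57BL/6 or BALB/c mice dosed with inhibitor (IV, IP, SC or PO, e.g. BID or TID), then stimulated with 2 μg anti-CD3 antibody. Plasma IL-2, IFNγ, TNFα at 8 h and CD25 on CD4+/CD8+ T-cells by flow cytometry at 24 h; fold change over vehicle plus anti-CD3, binned A–E.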

On to `C[C@H](Cc1nncn1C)c1cccc(NC(=O)c2ccnc(C(F)(F)F)n2)c1` [Compound 187, (R)-N-(3-(1-(4-methyl-4H-1,2,4-triazol-3-yl)propan-2-yl)phenyl)-2-(trifluoromethyl)pyrimidine-4-carboxamide], for which, for the setting “90 mpk IP BID”, the “CD4+ T-cell % CD25+” value is listed as “C (C indicates 1.51-2.00)” and the “CD8+ T-cell % CD25+” value is “D (D indicates 1.00-1.50)”.
Take `Cn1cnnc1[C@@H]1C[C@@H]1c1cccc(N2Cc3c(cccc3C(F)(F)F)C2=O)c1` [Compound 282, 2-(3-((1S,2R)-2-(4-methyl-4H-1,2,4-triazol-3-yl)cyclopropyl)phenyl)-4-(trifluoromethyl)isoindolin-1-one]: the “CD4+ T-cell % CD25+” value reads like this: (90 mpk PO BID) “D (D indicates 1.00-1.50)”; (135 mpk PO BID) “C (C indicates 1.51-2.00)”; (180 mpk PO BID) “B (B indicates 2.01-2.50)”. Also, the “CD8+ T-cell % CD25+” value reads like this: (90 mpk PO BID) “D (D indicates 1.00-1.50)”; (135 mpk PO BID) “D (D indicates 1.00-1.50)”; (180 mpk PO BID) “D (D indicates 1.00-1.50)”.

The record behind these values is patent publication US20220324835A1 (Nurix Therapeutics, Inc., priority 2018, published 2022).
